From US20250186403A1 (ARIZONA BOARD OF REGENTS ON BEHALF OF THE UNIVERSITY OF …, priority 2022, published 2025)
Where “and” joins values, the source holds several entries; their conditions need not be identical. Equal entries are not always repeated.

Legend:
[1] = tested on: Cne-WT and Cne-Mut; experiment: Resazurin-based HTS growth assay, dose-response IC50; assay type: cell-based, Cryptococcus neoformans; settings: 24 h
Protocol: HTS assay: A resazurin-based growth assay was developed for primary screening, employing two strains of Cne, the Cne-WT with natural intein and Cne-Mut, the mutant strain without intein. The assay was first standardized in 96 well formats and later optimized for 384 well plates. The HTS was done at ICCB-Longwood screening facility, Harvard University, Boston, USA. For HTS, the fungal cells were grown in SD broth overnight and diluted in SD broth to an optical density (OD) 0.5 at 600 nm. The cell suspension is further diluted 1:10 in RPMI 1640 media with 0.165 M MOPS, 2% glucose (RPMI-MOPS) so that the final OD will be 0.05. […] The conversion of resazurin to resorufin by live cells were estimated by reading fluorescence at Ex 550 nm and Em 590 nm using a plate reader (EnVision, Perkin Elmer). Additionally, the absorbance was also read at 600 nm using the plate reader (EnVision, Perkin Elmer). […] The ratio of fluorescence reading in Cne-WT and Cne-Mut was used to advance positive compounds.
Concentration series (0.02 to 50 µM) of test compounds and equalizing volume of DMSO were dispensed using a liquid handler (D300 e, Hewlett Packard) to the 384 well plates. Following the addition of Cne cell suspension, the assay plates were incubated for 24 h, and fluorescence readings of resorufin were taken as explained for single concentration screening.

[2] = tested on: Cne-WT; experiment: Fungistatic/fungicidal assay (MFC); assay type: cell-based, Cryptococcus neoformans
Protocol: The assay was performed by microdilution method as explained in materials and method. […] Cells in the wells were mixed by pipetting, and 30 μl of the culture taken from each well was plated onto SD agar plates. […] The MFC is the minimum drug concentration where there are no colonies. If the ratio of MFC/MIC≤4 is considered fungicidal.
Freshly grown Cne-WT colony on SD agar plate was resuspended in sterile water to give an OD600 of 0.1. This fungal suspension was further diluted at 1:500 in RPMI-MOPS media. A volume of 100 μl of the final cell suspension was added to each well in the assay plates. Additionally, 100 μl of final cell suspension was plated onto the SD agar plate to examine the actual cell count; and colonies were counted after 3 days. The assay plates were incubated at 30° C. for 48 h in a humidified incubator. The culture wells were mixed with micropipette tips, and 20 μl of the culture along with 70 μl RPMI-MOPS was plated onto the SD agar plates (100 mm) and incubated at 30° C. for 72 h before counting the colonies. […] The ratio of MFC/MIC≤4 was considered fungicidal and >4 as fungistatic.

[3] = tested on: Cne-WT in RAW 264.7 macrophages; experiment: Phagocytosis assay (macrophage intracellular infection model); assay type: cell-based, Cryptococcus neoformans; settings: for reduction of intracellular Cne in macrophages: 24 h, macrophage lysate
Protocol: FIGS. 1B, 1C, and 1D show phagocytosis assays. RAW 264.7 cells were seeded in 24 well plates and differentiated into macrophages using PMA. Media was replaced with fresh media containing opsonized Cne-WT and incubated at 37° C. for 8 h. Cells were washed 3 times with PBS to remove non-phagocytosed fungal cells. […] Culture supernatants were diluted and plated onto SD agar plates for tittering the fungal load. The cells were washed thrice with PBS and homogenized with a small homogenizer, diluted, and plated on SD agar plates. Colonies were counted after 72 h. […] Treatment groups were compared with unpaired Student's t-test. p<0.05 is considered significant. […] Insert: enlarged view of the phagocytosed Cne cells. The cells were permeabilized with methanol and stained with Giemsa stain. CFU: […] Cne: Cryptococcus neoformans.
Phagocytosis assay: Mouse monocyte/macrophage-like cells RAW 264.7 were seeded in the six-well plate in DMEM media with 10% FBS and incubated at 37° C. in a CO2 incubator. Once it reached 70% confluently, the cells were differentiated into macrophages by replacing the culture supernatant with fresh media containing 100 nM phorbol 12-myristate 13-acetate (PMA) and incubated at 37° C. for 48 h in a CO2 incubator. Differentiated cells in six-well plates were washed once with PBS to remove loosely bound cells. Cne-WT cells were grown overnight in the SD broth media and washed thrice in 0.1 mM PBS, opsonized with 20% human complement serum (Sigma, USA) and 20 μg glucuronoxylomannan specific antibody (clone 18B7, EMD Millipore, USA) by incubating at 37° C. for 30 min with rotating end to end. The Cne cells were washed thrice with PBS to remove unbound antibodies and serum components. The opsonized Cne cells were added to the macrophages at 1:10 ratio and incubated at 37° C. for 10 h. […] The fungal load in the media and the cells was estimated. For tittering, 100 μl of the culture supernatant was plated onto the SD-agar plates with tenfold dilutions. The cells were washed with PBS, scraped, and harvested in PBS, homogenized with a disposable homogenizer. A volume of 30 μl was mixed with 60 μl SD media and plated onto the SD agar plates. The plates were incubated at 30° C. for 72 h, and colonies were counted.

[4] = Cytotoxicity (Cell Counting Kit-8); assay type: cell-based; settings: human, A549 cells
Protocol: FIGS. 4A, 4B, and 4C show in vitro and in vivo toxicity. […] A549 and RAW 264.7 cells were grown in 96 well plates till 70% confluent. RAW 264.7 cells were differentiated into macrophages using PMA. […] The cell viability was estimated by Cell Counting Kit-8 (GlpBio, CA, USA), and absorbance was read at 450 nm using microplate reader Synergy H1 (BioTek). CC50 was calculated by GraphPad prism. […] Abs: absorbance. […] Bodyweight and other parameters were monitored daily (Table 3).
Approximately 2×10^4 A549 cells in MEM media with 10% FBS were seeded per well of 96 well plates and incubated at 37° C. to reach 70% confluent. […] The plates were incubated for 48 h before the addition of 10 μl water-soluble […] (Cell counting kit-8, Glpbio Technology) to each well and incubated at 37° C. for 3 h.

[5] = Cryptococcus neoformans, RAW264.7, 24 h, read-out: inhibition of released Cne

CNc1ccc2oc(C[C@H]3O[C@@]4(CC[C@H]3C)O[C@H]([C@H](C)C(=O)c3ccc[nH]3)[C@H](C)C[C@H]4C)nc2c1C(=O)O [CMN, calcimycin]
difference in IC50 (Cne-Mut vs Cne-WT) [1]: 2.5 fold
nature of inhibition (fungistatic/fungicidal) [2]: fungistatic (>4 as fungistatic)
MFC ([2]; Cryptococcus neoformans, 48 h culture, plated, colonies day 3, read-out: MFC (minimum fungicidal concentration)): > 26 µg/mL
reduction of intracellular Cne in macrophages ([3]; 0.3 μg/ml CMN): 23%
reduction of intracellular Cne in macrophages ([3]; 0.6 μg/ml CMN): 50%
reduction of intracellular Cne in macrophages ([3]; CMN): 72%
inhibition at 0.3 µg/mL [3, 5]: 41%
inhibition at 0.6 µg/mL [3, 5]: 59%
inhibition at 1.3 µg/mL [3, 5]: 69%
released Cne (significance) ([3]; at 0.3 μg/ml): significantly reduced
growth of intracellular Cne in macrophages (significance) ([3]; at 0.6 μg/ml): significantly reduced
CC50 at 48 h [4]: 16.3 µM and 8.6 µg/mL
